Active and inactive are the calls of the source.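 The calls were made as follows: active = compounds giving half or more protection of infected cells from virus-caused growth loss, again on retest; inactive = the rest.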
System: CEM cells HIV-1 protection, formazan growth assay
Assay: NCI AIDS Antiviral Assay
Conditions: for IC50: measured here: growth of uninfected CEM cells
Procedure, shortened: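 CEM (human) cells, HIV-1 infected vs uninfected, 5-point dosing, formazan growth read-out. Retest threshold 50% protection.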

| Compound | EC50 [µM] | IC50 [µM] | outcome |
| --- | --- | --- | --- |
| COc1ccc(C(=O)Nc2cc(Cc3cc(NC(=O)c4ccc(OC)c(C(=O)O)c4)c(OC)c(C(=O)O)c3)cc(C(=O)O)c2OC)cc1C(=O)O | > 50.1 | > 50.1 | – |
| c1ccc(Oc2cccc(Oc3ccc4c(c3)-c3nc-4nc4[nH]c(nc5nc(nc6[nH]c(n3)c3ccc(Oc7cccc(Oc8ccccc8)c7)cc63)-c3cc(Oc6cccc(Oc7ccccc7)c6)ccc3-5)c3ccc(Oc5cccc(Oc6ccccc6)c5)cc43)c2)cc1 | > 3.02 | > 3.02 | – |
| CC(C)CCCC(C)C1CCC2[C@@H]3CCC4C[C@@H](CCCC(c5cc(Cl)c(O)c(C(=O)O)c5)c5cc(Cl)c(O)c(C(=O)O)c5)CC[C@]4(C)C3CC[C@]12C (some centres not stated) | 18.2 | 309 | – |
| O=C(Nc1ccccc1C(=O)O)C(=O)C(C(=O)c1ccccc1-c1ccccc1)C1OC(=O)c2ccccc21 (configuration not stated) | > 50.1 | 25.1 | – |
| Cn1c2ccccc2c(=O)c2c([N+](=O)[O-])ccc(NCCN)c21 | – | – | inactive |
| COc1ccc(N2C(=O)C3c4[nH]c5ccccc5c4C4CCCCCCC4C3C2=O)cc1 (configuration not stated) | > 8.71 | > 8.71 | – |
| Cc1c(Cl)cccc1Nc1ncccc1C(=O)OCC(O)CO (configuration not stated) | > 200 | 91.2 | – |
| Cc1cc(-c2ccco2)c(C#N)c(=S)n1C1OC(CO)C(O)C(O)C1O (configuration not stated) | > 200 | > 200 | – |
| N=CCCN(CCC=N)c1ccc(/C=C2\CN(NC(=O)c3ccc(Cl)cc3)C(c3ccccc3)=N2)cc1 | > 70.8 | > 70.8 | – |
| OC(c1ccccc1)c1c(-c2ccccc2)oc(-c2ccccc2)c1C(O)c1ccccc1 (configuration not stated) | – | – | inactive |
| CC(=O)NC(ON1C(=O)COc2ccccc21)C(Cl)(Cl)Cl (configuration not stated) | > 100 | > 100 | – |
| COC(=O)OCC1C=CC(n2cnc3c(Cl)ncnc32)CC1 (configuration not stated) | > 200 | 11.5 | – |
| CN(C)P1(=O)NCC(C)(C)CO1 (configuration not stated) | > 1290 | > 1290 | – |
| C=C=C(C)CN(CC)CC | > 1580 | > 1580 | – |
| CCOC(=O)C(Cc1cn(S(=O)(=O)c2ccc(C)cc2)cn1)P(=O)(OCC)OCC (configuration not stated) | > 200 | > 200 | – |
| CCOC(=O)[C@@H]1ON2O[C@H](OC3CCCCC3c3ccccc3)C[C@H]3OC(=O)[C@@H]1C32 (some centres not stated) | > 200 | 117 | – |
| O=C1C2CCC(C2)C12CC1(c3ccccc3)C(=O)c3ccccc3N1O2 (configuration not stated) | > 28.8 | 27.5 | – |
| CCN1CC2(OC(=O)c3ccccc3NC(C)=O)CCC(OC)C34C1C(CC23)C1(O)CC(OC)C2CC4C1(O)C2OC (configuration not stated) | – | – | inactive |
| O=S(=O)(c1ccc(I)cc1)c1ccc(I)cc1 | – | – | inactive |
| COc1cc(CO)c(C2OC(CO)C(O)C2O)c(OC)c1 (configuration not stated) | – | – | inactive |
| N#Cc1cccc(C[P+](c2ccccc2)(c2ccccc2)c2ccccc2)c1 | > 200 | 135 | – |

| Compound | EC50 [µM] | IC50 [µM] | outcome |
| --- | --- | --- | --- |
| CCN(CC)CCCCCCNc1cc(C)cc2cccnc12 | > 200 | 20.9 | – |
| COc1cc2oc(=O)cc(C)c2c(OC)c1O | – | – | inactive |
| [O-]/N=[N+](/[O-])C1CCCCC1=[N+]1CCOCC1 (configuration not stated) | > 200 | 32.4 | – |
| [Cu+2].[O-]/N=C/c1ccc(O)c(O)c1[O-].[O-]/N=C/c1ccc(O)c(O)c1[O-] | – | – | inactive |
| N#Cc1n[nH]n(-c2ccc(Br)cc2)c1=O | > 200 | > 200 | – |
| CCN(CC)CCN=Cc1c(O)c(O)c(C(C)C)c2cc(C)c(-c3c(C)cc4c(C(C)C)c(O)c(O)c(C=NCCN(CC)CC)c4c3O)c(O)c12 | > 200 | 1.02 | – |
| CCSc1cccc(C(=O)O)c1 | > 513 | > 513 | – |
| Cc1cc(NS(=O)(=O)c2ccc(N)cc2)no1 | > 200 | > 200 | – |
| Cc1cn([C@H]2C[C@@H](N(O)C(=O)Nc3ccccc3)[C@@H](CO)O2)c(=O)[nH]c1=O | > 200 | > 200 | – |
| O=C(/C=C/c1ccccc1)/C=C/c1ccccc1 | – | – | inactive |
| CCOC(=O)CC1(N)CC2c3ccccc3OC(=O)C2C(=O)N1 (configuration not stated) | > 200 | > 200 | – |
| CC(C)C1C(=O)N(c2c(F)c(F)c(F)c(F)c2F)C(=S)N1CCS(=O)c1ccccc1 (configuration not stated) | > 200 | 9.33 | – |
| O=[As](O)(O)c1ccc(-c2ccc([As](=O)(O)O)cc2)cc1 | > 200 | > 200 | – |
| CC12CCC(C(Nc3cc(C(F)(F)F)cc(C(F)(F)F)c3)C1=O)C2(C)C (configuration not stated) | > 200 | > 200 | – |
| COc1ccc(C2Oc3ccc(Cl)cc3C=C2[N+](=O)[O-])cc1 (configuration not stated) | > 200 | 0.447 | – |
| O=C1/C(=C\c2ccccc2Cl)CCCC/C1=C\c1ccccc1Cl | > 200 | 166 | – |
| O=C1CSC(Cc2nc3ccccc3[nH]2)=N1 | > 30.9 | > 30.9 | – |
| CCCCCN(CCCCC)/N=C/c1c2c(O)c3c(O)c(C)c4c(c3c1O)C(=O)C(C)(O/C=C/C(OC)C(C)C(OC(C)=O)C(C)C(O)C(C)C(O)C(C)/C=C/C=C(C)C(=O)N2)O4 (configuration not stated) | > 200 | 8.32 | – |
| CC1SC(=O)SC1C (configuration not stated) | > 1700 | > 1700 | – |
| C=CCCCC(C#N)(c1ccccc1)N(C)C (configuration not stated) | – | – | inactive |
| COC(=O)c1c(C(=O)OC)c2c(C)nn3ccc1n23 | > 955 | > 955 | – |

| Compound | EC50 [µM] | IC50 [µM] | outcome |
| --- | --- | --- | --- |
| Nc1nc(N)nc(-c2cccs2)n1 | > 200 | > 200 | – |
| CC/C(CC(=O)CCC(=O)Nc1ccccc1[N+](=O)[O-])=N/NC(=O)C[n+]1ccccc1 | > 25.7 | > 25.7 | – |
| O=C(NCCCCCCCCCCCCNC(=O)c1cnc2ccccc2n1)c1cnc2ccccc2n1 | > 4.9 | > 4.9 | – |
| CC(=O)NC(NCCN)(c1ccccc1)c1ccccc1 | > 200 | > 200 | – |
| Nc1nc2c(c(=O)[nH]1)CNC2=O | > 200 | > 200 | – |
| O=c1oc2c3ccccc3c3ccccc3c2c2oc3c4ccccc4c4ccccc4c3c12 | 0.0209 | 0.955 | – |
| Cc1cn([C@H]2C[C@@H](N3C(=O)c4ccccc4C3=O)[C@@H](CO[Si](C)(C)C(C)(C)C)O2)c(=O)[nH]c1=O | > 200 | 151 | – |
| CC1(C)CC(=O)C(CC2C(=O)CCCC2=O)C(=O)C1 | > 955 | 891 | – |
| COc1cccc(C2c3cc4c(cc3OC(NNc3ccccc3)C2C)OCO4)c1OC (configuration not stated) | > 200 | 8.13 | – |
| CCO/C=N/C1=C(C#N)C(c2ccc(Cl)cc2)c2c(-c3ccccc3)nn(-c3ccccc3)c2O1 (configuration not stated) | > 20 | 17 | – |
| CC(C)N(C(=O)C12C3(C(=O)C(C)(C)C)C4C5(C#N)C3C1(C(=O)C(C)(C)C)C5C42C(=O)C(C)(C)C)C(C)C (configuration not stated) | > 151 | > 151 | – |
| COc1ccc(C2SC(N)=Nc3c2c(C)nn3C(=O)c2ccncc2)cc1 (configuration not stated) | > 200 | 110 | – |
| CNNc1ncnc2c1cnn2C | > 794 | > 794 | – |
| CCOC(=O)CSc1nnc(C(Sc2nc(-c3ccccc3)c(-c3ccccc3)[nH]2)C(C)C)n1-c1ccccc1 (configuration not stated) | > 24 | > 24 | – |
| CCN(CC)c1ccc(Cl)c2c1C(O)(C(C)C)C2(C)C (configuration not stated) | > 200 | 58.9 | – |
| Nc1nc(Cl)cc(NCC2(CO)CCCCC2)n1 | > 200 | 105 | – |
| O=C1c2ccccc2C(=O)N1/N=C1/SC(=Nc2ccccc2)C(=Nc2ccccc2)N1c1ccccc1 | – | – | inactive |
| Cc1cn([C@H]2C[C@](C)(CO)N(C)O2)c(=O)[nH]c1=O | > 200 | > 200 | – |
| Cc1ccc([N+](=O)[O-])c2c(NCCCN(C)C)c3ccccc3nc12 | > 0.2 | 0.0513 | – |

Source: PubChem BioAssay AID179 (DTP/NCI, 2004)
